Experimental findings from US7157482B2, “Antibacterial 1,3-oxazolidin-2-one derivatives” (AstraZeneca AB, priority 2003, dated 2007) are described below.

Converted amounts (≈) assume the structure as drawn.

For one test, the system named is Moraxella catarrhalis. As to the kind of experiment: MIC, Moraxella catarrhalis. The test is classed as cell-based. The following applies: fastidious Gram negative: Mueller-Hinton broth with hemin and NAD, 24 hours, 37° C., 5×10^4 CFU/well. On the procedure: (§1) The following results were obtained on a standard in-vitro test system. The activity is described in terms of the minimum inhibitory concentration (MIC) determined by the agar-dilution technique with an inoculum size of 10^4 CFU/spot. Typically, compounds are active in the range 0.01 to 256 μg/ml.
(§2) Streptococci and enterococci were tested on agar supplemented with 5% defibrinated horse blood, an inoculum of 10^4 CFU/spot and an incubation temperature of 37° C. in an atmosphere of 5% carbon dioxide for 48 hours—blood is required for the growth of some of the test organisms. Fastidious Gram negative organisms were tested in Mueller-Hinton broth, supplemented with hemin and NAD, grown aerobically for 24 hours at 37° C., and with an innoculum of 5×10^4 CFU/well.

A further test concerns Streptococcus pneumoniae. As to the kind of experiment: MIC, agar-dilution, Streptococcus pneumoniae. The test is classed as cell-based. The conditions noted are these: agar with 5% defibrinated horse blood, 10^4 CFU/spot, 37° C., 5% carbon dioxide, 48 hours. As to the method: as §1, §2
In a further test the target is T1, MAO-A (Homo sapiens, UniProt P21397).
T1 construct: made in house; host or cells: yeast
T1 sequence (P21397 1-527): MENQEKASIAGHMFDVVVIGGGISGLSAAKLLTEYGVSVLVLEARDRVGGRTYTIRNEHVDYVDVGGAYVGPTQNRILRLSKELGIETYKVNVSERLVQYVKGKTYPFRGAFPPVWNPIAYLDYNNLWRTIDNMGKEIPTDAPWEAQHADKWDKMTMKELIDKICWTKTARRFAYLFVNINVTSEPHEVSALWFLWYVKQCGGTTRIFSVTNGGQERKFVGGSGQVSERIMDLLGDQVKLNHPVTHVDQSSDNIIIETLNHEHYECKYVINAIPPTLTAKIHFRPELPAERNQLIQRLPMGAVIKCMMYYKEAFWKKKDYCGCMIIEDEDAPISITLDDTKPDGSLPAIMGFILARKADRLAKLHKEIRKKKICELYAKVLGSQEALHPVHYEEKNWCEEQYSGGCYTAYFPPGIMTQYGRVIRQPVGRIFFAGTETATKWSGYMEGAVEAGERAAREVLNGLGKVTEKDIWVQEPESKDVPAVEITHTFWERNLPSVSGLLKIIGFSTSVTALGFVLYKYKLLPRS
As to the kind of experiment: MAO-A in-vitro assay, human liver enzyme expressed in yeast. The format is biochemical. As to the method: The activity of the compounds of the invention against MAO-A was tested using a standard in-vitro assay based on human liver enzyme expressed in yeast as described in Biochem. Biophys. Res. Commun. 1991, 181, 1084–1088.

The test system of the next test is Enterococcus faecium. As to the kind of experiment: MIC, agar-dilution, Enterococcus faecium. The test is classed as cell-based. The conditions noted are these: agar with 5% defibrinated horse blood, 10^4 CFU/spot, 37° C., 5% carbon dioxide, 48 hours. On the procedure: as §1, §2
Test [1] concerns Staphylococcus aureus MRQR (methicillin resistant and quinolone resistant). Description: MIC, agar-dilution, Staphylococcus aureus MRQR. The test is classed as cell-based. The following applies: S. aureus MRQR, inoculum 10^4 CFU/spot, 37° C., 24 hours. On the procedure: as §1
(§3) Staphylococci were tested on agar, using an inoculum of 10^4 CFU/spot and an incubation temperature of 37° C. for 24 hours—standard test conditions for the expression of methicillin resistance.

Test [2] has as its system Staphylococcus aureus MSQS (methicillin sensitive and quinolone sensitive). Description: MIC, agar-dilution, Staphylococcus aureus MSQS. The format is cell-based. The conditions noted are these: S. aureus MSQS, inoculum 10^4 CFU/spot, 37° C., 24 hours. As to the method:
as §1, §3

Broadly, the MIC is the lowest concentration found to suppress growth. By Ki is commonly meant a measure of affinity in units of concentration, obtained from inhibition or displacement. Low readings indicate tighter binding, high ones weaker binding.

On to `Cc1cn(C[C@H]2CN(c3ccc(-c4cc(C)no4)c(F)c3)C(=O)O2)nn1` [Example 1, (5R)-3-[3-Fluoro-4-(3-methylisoxazol-5-yl)phenyl]-5-[(4-methyl-1H-1,2,3-triazol-1-yl)methyl]-1,3-oxazolidin-2-one], for which the MIC in the test with Moraxella catarrhalis is 1 µg/mL (≈ 2.8 µM); against Streptococcus pneumoniae, 0.5 µg/mL (≈ 1.4 µM); against Enterococcus faecium it was 1 µg/mL (≈ 2.8 µM); in test [1], 1 µg/mL (≈ 2.8 µM); in test [2], 4 µg/mL (≈ 11.2 µM). In addition, at MAO-A, the affinity corresponds to a Ki of 58.8 µM.

Compound `Cc1cc(-c2ccc(N3C[C@H](Cn4ccnn4)OC3=O)cc2F)on1` [unsubstituted triazole equivalent, reference compound] showed a Ki at MAO-A of 6.99 µM. This lies in the single-digit micromolar range.
